{"source": "paper PMC7181660", "about": "“A novel specific PERK activator reduces toxicity and extends survival in Huntington's disease models” (Scientific Reports, 2020)", "test_in_all_cases": "biochemical", "assay_type_in_all_cases": "biochemical", "key": {"panel of 391 kinases [1]": {"biological_target": "panel of 391 kinases (Homo sapiens, UniProt O75676)", "sequence (O75676 whole entry)": "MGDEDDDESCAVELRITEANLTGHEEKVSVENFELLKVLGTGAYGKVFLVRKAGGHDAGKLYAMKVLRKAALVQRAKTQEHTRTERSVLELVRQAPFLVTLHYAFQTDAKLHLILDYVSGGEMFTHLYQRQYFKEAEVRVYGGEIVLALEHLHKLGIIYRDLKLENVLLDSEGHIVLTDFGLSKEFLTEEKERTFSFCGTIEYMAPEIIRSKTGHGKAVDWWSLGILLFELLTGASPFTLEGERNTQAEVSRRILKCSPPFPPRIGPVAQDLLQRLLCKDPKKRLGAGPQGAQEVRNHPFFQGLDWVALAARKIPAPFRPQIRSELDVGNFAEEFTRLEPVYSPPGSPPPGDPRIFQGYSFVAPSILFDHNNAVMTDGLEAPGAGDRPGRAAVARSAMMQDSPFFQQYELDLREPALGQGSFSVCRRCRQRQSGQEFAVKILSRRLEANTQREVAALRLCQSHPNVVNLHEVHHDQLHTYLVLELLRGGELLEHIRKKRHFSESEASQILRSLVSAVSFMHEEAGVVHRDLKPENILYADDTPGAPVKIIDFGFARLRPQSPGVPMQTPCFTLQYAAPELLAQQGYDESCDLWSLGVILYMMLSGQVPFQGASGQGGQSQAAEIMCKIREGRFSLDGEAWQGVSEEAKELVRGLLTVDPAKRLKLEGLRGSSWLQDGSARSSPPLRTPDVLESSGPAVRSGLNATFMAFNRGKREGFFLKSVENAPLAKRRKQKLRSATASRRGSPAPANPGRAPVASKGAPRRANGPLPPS", "conditions": "MSK2/RPS6KA4, MK-28 1 µM, ATP 1 µM"}, "panel of 391 kinases [2]": {"biological_target": "panel of 391 kinases (Homo sapiens, UniProt Q09013)", "sequence (Q09013 whole entry)": "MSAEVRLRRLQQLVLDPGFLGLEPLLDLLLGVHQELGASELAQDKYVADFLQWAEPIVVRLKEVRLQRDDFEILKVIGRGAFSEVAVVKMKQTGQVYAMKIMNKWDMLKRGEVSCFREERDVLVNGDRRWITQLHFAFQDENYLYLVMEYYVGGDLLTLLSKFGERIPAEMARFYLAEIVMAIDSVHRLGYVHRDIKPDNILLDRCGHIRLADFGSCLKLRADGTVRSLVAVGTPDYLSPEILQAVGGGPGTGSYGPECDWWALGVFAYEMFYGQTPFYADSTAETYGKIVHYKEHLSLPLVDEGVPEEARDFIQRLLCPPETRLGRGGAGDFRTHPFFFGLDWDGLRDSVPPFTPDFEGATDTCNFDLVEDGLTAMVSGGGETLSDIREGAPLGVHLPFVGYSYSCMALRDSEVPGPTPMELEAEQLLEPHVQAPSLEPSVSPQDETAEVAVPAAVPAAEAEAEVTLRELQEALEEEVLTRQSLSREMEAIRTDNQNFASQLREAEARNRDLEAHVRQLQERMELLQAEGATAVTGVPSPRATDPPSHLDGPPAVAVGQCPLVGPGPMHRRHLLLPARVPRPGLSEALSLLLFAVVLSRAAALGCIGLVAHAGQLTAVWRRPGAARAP", "conditions": "DMPK, MK-28 1 µM, ATP 1 µM"}, "panel of 391 kinases [3]": {"biological_target": "panel of 391 kinases (Homo sapiens, UniProt Q00535)", "sequence (Q00535 whole entry)": "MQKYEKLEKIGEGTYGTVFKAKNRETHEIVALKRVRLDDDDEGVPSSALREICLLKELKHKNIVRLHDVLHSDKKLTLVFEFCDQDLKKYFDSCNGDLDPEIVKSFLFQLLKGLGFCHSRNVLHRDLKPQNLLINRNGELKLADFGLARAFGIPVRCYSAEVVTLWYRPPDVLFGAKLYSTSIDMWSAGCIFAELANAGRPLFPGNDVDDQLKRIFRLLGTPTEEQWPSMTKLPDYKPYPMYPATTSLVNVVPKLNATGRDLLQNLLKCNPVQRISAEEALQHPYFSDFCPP", "conditions": "MK-28 1 µM, ATP 1 µM; for remaining activity at 1 µM: read-out: % Enzyme Activity (relative to DMSO controls)"}, "panel of 391 kinases [4]": {"biological_target": "panel of 391 kinases (Homo sapiens, UniProt P17252)", "conditions": "PKCa, MK-28 1 µM, ATP 1 µM"}, "panel of 391 kinases [5]": {"biological_target": "panel of 391 kinases (Homo sapiens, UniProt O94806)", "conditions": "PKCnu/PRKD3, MK-28 1 µM, ATP 1 µM"}, "panel of 391 kinases [6]": {"biological_target": "panel of 391 kinases (Homo sapiens, UniProt P19525)", "sequence (P19525 whole entry)": "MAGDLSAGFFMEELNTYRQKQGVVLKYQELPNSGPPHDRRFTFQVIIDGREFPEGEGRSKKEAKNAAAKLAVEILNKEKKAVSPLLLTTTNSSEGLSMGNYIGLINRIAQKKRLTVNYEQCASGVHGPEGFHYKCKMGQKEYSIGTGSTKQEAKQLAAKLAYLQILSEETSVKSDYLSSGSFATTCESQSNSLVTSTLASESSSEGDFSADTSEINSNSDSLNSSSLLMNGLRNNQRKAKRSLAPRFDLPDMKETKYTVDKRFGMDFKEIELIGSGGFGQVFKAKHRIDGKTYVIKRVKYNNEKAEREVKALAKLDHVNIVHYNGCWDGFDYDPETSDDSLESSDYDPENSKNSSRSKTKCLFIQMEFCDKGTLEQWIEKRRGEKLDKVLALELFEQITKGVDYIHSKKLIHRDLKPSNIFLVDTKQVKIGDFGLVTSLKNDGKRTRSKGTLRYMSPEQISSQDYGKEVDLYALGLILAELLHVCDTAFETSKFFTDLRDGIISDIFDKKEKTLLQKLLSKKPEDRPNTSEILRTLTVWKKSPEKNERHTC", "conditions": "kinase EIF2AK2, compound at 1 µM, single dose in duplicates, 1 µM ATP"}, "panel of 391 kinases [7]": {"biological_target": "panel of 391 kinases (Homo sapiens, UniProt P49674)", "conditions": "CK1epsilon, MK-28 1 µM, ATP 1 µM"}, "panel of 391 kinases [8]": {"biological_target": "panel of 391 kinases (Homo sapiens, UniProt Q9NY57)", "sequence (Q9NY57 whole entry)": "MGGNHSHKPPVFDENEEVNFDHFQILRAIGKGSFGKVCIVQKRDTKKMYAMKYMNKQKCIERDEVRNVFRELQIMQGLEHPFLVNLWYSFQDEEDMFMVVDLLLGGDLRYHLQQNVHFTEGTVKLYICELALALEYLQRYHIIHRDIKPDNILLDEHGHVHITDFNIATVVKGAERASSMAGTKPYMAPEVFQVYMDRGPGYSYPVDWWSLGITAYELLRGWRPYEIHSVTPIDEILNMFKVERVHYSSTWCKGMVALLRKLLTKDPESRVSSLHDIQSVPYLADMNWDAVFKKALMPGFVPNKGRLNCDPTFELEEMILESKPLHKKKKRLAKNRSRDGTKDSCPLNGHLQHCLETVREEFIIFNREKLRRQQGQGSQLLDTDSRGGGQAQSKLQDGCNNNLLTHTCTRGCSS", "conditions": "STK32B/YANK2, MK-28 1 µM, ATP 1 µM"}, "panel of 391 kinases [9]": {"biological_target": "panel of 391 kinases (Homo sapiens, UniProt P00533)", "sequence (P00533 25-1210)": "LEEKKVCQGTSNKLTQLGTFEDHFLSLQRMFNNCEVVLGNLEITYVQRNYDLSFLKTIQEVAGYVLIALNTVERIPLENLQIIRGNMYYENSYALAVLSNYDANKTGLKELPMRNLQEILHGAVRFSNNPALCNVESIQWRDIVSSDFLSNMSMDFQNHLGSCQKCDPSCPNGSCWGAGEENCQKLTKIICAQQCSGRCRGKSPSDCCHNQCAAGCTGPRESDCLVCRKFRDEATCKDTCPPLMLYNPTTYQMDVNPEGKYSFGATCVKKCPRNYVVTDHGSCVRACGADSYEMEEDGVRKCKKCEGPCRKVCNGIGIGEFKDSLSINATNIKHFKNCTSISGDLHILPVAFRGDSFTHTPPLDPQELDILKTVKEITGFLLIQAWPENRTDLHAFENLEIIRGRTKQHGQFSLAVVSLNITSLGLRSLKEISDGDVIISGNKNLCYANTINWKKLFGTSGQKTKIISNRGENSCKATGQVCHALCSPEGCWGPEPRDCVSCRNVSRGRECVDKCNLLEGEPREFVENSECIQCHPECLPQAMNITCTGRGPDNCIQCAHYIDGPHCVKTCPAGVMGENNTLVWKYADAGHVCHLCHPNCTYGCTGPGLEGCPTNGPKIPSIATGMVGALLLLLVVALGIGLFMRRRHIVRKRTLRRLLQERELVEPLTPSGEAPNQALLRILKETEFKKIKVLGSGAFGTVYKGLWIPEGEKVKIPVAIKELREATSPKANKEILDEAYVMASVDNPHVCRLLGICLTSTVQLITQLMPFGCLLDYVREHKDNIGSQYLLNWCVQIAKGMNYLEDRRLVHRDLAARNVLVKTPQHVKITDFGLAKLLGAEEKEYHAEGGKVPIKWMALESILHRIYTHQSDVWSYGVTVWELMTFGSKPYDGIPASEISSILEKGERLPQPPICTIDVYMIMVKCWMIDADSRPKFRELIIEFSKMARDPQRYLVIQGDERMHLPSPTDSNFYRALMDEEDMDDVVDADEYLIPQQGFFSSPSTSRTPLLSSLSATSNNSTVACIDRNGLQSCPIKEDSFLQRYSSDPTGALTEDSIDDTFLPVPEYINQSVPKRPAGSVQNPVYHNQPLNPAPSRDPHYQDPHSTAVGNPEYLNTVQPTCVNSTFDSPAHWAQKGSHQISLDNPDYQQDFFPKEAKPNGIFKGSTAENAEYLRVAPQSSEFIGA", "conditions": "EGFR, MK-28 1 µM, ATP 1 µM"}, "panel of 391 kinases [10]": {"biological_target": "panel of 391 kinases (Homo sapiens, UniProt Q86Z02)", "sequence (Q86Z02 whole entry)": "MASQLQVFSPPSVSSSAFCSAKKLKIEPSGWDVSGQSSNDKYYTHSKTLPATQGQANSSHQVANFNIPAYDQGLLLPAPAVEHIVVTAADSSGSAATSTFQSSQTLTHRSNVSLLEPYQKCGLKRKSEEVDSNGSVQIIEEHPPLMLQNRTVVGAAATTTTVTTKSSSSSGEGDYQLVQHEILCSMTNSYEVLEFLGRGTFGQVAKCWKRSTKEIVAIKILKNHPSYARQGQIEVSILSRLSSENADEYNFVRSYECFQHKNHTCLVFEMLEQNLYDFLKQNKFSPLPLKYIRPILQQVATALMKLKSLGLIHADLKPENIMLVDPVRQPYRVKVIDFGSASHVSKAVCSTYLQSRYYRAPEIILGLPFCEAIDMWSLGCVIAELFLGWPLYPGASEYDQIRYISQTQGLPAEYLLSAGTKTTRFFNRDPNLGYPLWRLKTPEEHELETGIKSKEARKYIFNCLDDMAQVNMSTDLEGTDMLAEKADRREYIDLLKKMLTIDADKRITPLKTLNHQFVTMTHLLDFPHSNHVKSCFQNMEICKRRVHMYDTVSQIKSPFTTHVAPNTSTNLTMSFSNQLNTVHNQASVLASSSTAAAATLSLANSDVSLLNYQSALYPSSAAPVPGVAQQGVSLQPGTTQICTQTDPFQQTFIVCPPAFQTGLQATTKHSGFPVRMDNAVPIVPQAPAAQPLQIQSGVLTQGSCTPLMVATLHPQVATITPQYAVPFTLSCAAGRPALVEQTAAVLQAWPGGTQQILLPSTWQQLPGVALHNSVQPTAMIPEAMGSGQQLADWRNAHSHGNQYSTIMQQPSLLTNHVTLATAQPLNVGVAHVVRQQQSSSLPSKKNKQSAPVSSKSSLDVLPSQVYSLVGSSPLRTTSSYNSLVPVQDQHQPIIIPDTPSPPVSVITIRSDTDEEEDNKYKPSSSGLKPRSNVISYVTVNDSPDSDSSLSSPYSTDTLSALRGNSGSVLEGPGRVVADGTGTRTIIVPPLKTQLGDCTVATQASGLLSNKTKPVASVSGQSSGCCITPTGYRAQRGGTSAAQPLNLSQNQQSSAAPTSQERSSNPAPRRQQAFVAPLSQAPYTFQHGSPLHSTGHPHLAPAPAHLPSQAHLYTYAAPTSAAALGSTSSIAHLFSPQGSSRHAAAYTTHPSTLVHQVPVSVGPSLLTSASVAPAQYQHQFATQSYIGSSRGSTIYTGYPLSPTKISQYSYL", "conditions": "HIPK1, MK-28 1 µM, ATP 1 µM"}, "panel of 391 kinases [11]": {"biological_target": "panel of 391 kinases (Homo sapiens, UniProt Q04759)", "conditions": "PKCtheta, MK-28 1 µM, ATP 1 µM"}, "panel of 391 kinases [12]": {"biological_target": "T1, panel of 391 kinases (Homo sapiens, UniProt Q9NZJ5)", "T1 sequence (Q9NZJ5 30-1116)": "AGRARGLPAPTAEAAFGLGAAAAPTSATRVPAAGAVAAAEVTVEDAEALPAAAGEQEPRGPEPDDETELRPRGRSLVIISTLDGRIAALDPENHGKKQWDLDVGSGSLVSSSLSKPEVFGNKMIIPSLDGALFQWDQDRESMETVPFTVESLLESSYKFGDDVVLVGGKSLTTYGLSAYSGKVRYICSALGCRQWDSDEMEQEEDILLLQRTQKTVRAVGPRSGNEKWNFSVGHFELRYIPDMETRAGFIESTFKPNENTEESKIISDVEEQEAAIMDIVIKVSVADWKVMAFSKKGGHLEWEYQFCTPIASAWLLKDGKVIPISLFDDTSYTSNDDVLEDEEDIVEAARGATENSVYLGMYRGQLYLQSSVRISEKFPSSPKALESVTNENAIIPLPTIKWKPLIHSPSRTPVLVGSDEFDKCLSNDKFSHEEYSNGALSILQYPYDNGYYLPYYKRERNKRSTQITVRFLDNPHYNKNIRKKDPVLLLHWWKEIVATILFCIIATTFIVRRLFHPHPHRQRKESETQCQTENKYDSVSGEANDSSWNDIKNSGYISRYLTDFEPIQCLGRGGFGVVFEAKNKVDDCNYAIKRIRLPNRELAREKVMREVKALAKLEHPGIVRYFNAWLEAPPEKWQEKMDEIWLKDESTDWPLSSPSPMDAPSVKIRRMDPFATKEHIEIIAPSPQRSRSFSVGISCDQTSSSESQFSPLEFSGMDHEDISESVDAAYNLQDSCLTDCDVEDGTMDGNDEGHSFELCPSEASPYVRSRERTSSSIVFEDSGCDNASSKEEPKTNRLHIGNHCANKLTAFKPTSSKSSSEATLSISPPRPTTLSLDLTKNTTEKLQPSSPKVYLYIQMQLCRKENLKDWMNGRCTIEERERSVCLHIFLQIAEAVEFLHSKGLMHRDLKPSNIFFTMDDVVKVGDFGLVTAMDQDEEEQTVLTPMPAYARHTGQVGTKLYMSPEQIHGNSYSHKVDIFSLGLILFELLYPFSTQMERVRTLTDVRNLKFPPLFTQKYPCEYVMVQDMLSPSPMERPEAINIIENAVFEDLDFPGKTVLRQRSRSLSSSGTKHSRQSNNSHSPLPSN"}, "panel of 391 kinases [13]": {"biological_target": "panel of 391 kinases (Homo sapiens, UniProt P49760)", "conditions": "CLK2, MK-28 1 µM, ATP 1 µM"}, "panel of 391 kinases [14]": {"biological_target": "panel of 391 kinases (Homo sapiens, UniProt Q8IU85)", "conditions": "CAMK1d, MK-28 1 µM, ATP 1 µM"}, "panel of 391 kinases [15]": {"biological_target": "panel of 391 kinases (Homo sapiens, UniProt Q5TCX8)", "conditions": "MLK4, MK-28 1 µM, ATP 1 µM"}, "panel of 391 kinases [16]": {"biological_target": "panel of 391 kinases (Homo sapiens, UniProt P32298)", "conditions": "GRK4, MK-28 1 µM, ATP 1 µM"}, "panel of 391 kinases [17]": {"biological_target": "panel of 391 kinases (Homo sapiens, UniProt P43403)", "conditions": "ZAP70, MK-28 1 µM, ATP 1 µM"}, "[18]": {"conditions": "read-out: % Enzyme Activity (relative to DMSO controls)"}}, "note": "Where two headings read alike, the source gives them in different places.", "data": [{"smiles": "CN(/N=C\\c1ccc(O)c(O)c1)c1nc(-c2ccccc2)cc(-c2ccccc2)n1", "note": "[MK-28]", "values": [{"measurement": "% Enzyme Activity (relative to DMSO controls)", "setting": "panel of 391 kinases [1]", "result": 94.82, "unit": "%"}, {"measurement": "remaining activity at 1 µM", "setting": "panel of 391 kinases [1]; [18]", "result": 96.8, "unit": "%"}, {"measurement": "% Enzyme Activity (relative to DMSO controls)", "setting": "panel of 391 kinases [2]", "result": 103.01, "unit": "%"}, {"measurement": "remaining activity at 1 µM", "setting": "panel of 391 kinases [2]; [18]", "result": 104, "unit": "%"}, {"measurement": "% Enzyme Activity (relative to DMSO controls)", "setting": "panel of 391 kinases [3]; CDK5/p25", "result": 93.55, "unit": "%"}, {"measurement": "remaining activity at 1 µM", "setting": "panel of 391 kinases [3]; CDK5/p25", "result": 93.6, "unit": "%"}, {"measurement": "% Enzyme Activity (relative to DMSO controls)", "setting": "panel of 391 kinases [3]; CDK5/p35", "result": 96.39, "unit": "%"}, {"measurement": "remaining activity at 1 µM", "setting": "panel of 391 kinases [3]; CDK5/p35", "result": 96.6, "unit": "%"}, {"measurement": "% Enzyme Activity (relative to DMSO controls)", "setting": "panel of 391 kinases [4]", "result": 89.76, "unit": "%"}, {"measurement": "remaining activity at 1 µM", "setting": "panel of 391 kinases [4]; [18]", "result": 92.7, "unit": "%"}, {"measurement": "% Enzyme Activity (relative to DMSO controls)", "setting": "panel of 391 kinases [5]", "result": 97.83, "unit": "%"}, {"measurement": "remaining activity at 1 µM", "setting": "panel of 391 kinases [5]; [18]", "result": 98.1, "unit": "%"}, {"measurement": "% Enzyme Activity (relative to DMSO controls)", "setting": "panel of 391 kinases [6]", "result": 97.81, "unit": "%"}, {"measurement": "remaining activity at 1 µM", "setting": "panel of 391 kinases [6]; [18]", "result": 99, "unit": "%"}, {"measurement": "% Enzyme Activity (relative to DMSO controls)", "setting": "panel of 391 kinases [7]", "result": 82.77, "unit": "%"}, {"measurement": "remaining activity at 1 µM", "setting": "panel of 391 kinases [7]; [18]", "result": 83.4, "unit": "%"}, {"measurement": "% Enzyme Activity (relative to DMSO controls)", "setting": "panel of 391 kinases [8]", "result": 100.71, "unit": "%"}, {"measurement": "remaining activity at 1 µM", "setting": "panel of 391 kinases [8]; [18]", "result": 101, "unit": "%"}, {"measurement": "% Enzyme Activity (relative to DMSO controls)", "setting": "panel of 391 kinases [9]", "result": 102.64, "unit": "%"}, {"measurement": "remaining activity at 1 µM", "setting": "panel of 391 kinases [9]; [18]", "result": 104, "unit": "%"}, {"measurement": "% Enzyme Activity (relative to DMSO controls)", "setting": "panel of 391 kinases [10]", "result": 100.46, "unit": "%"}, {"measurement": "remaining activity at 1 µM", "setting": "panel of 391 kinases [10]; [18]", "result": 101, "unit": "%"}, {"measurement": "% Enzyme Activity (relative to DMSO controls)", "setting": "panel of 391 kinases [11]", "result": 123.95, "unit": "%"}, {"measurement": "remaining activity at 1 µM", "setting": "panel of 391 kinases [11]; [18]", "result": 128, "unit": "%"}, {"measurement": "remaining activity at 1 µM", "setting": "panel of 391 kinases [12]; 1 μM, duplicate, 391-kinase panel, read-out: PERK (EIF2AK3) activity, % of the control", "result": 181, "unit": "%"}, {"measurement": "% Enzyme Activity (relative to DMSO controls)", "setting": "panel of 391 kinases [12]; kinase EIF2AK3, compound at 1 µM, single dose in duplicates, 1 µM ATP", "result": 175.07, "unit": "%"}, {"measurement": "remaining activity at 1 µM", "setting": "panel of 391 kinases [12]; kinase EIF2AK3, compound at 1 µM, single dose in duplicates, 1 µM ATP, read-out: % Enzyme Activity (relative to DMSO controls)", "result": 188, "unit": "%"}, {"measurement": "% Enzyme Activity (relative to DMSO controls)", "setting": "panel of 391 kinases [13]", "result": 103.52, "unit": "%"}, {"measurement": "remaining activity at 1 µM", "setting": "panel of 391 kinases [13]; [18]", "result": 108, "unit": "%"}, {"measurement": "% Enzyme Activity (relative to DMSO controls)", "setting": "panel of 391 kinases [14]", "result": 86.95, "unit": "%"}, {"measurement": "remaining activity at 1 µM", "setting": "panel of 391 kinases [14]; [18]", "result": 87.6, "unit": "%"}, {"measurement": "% Enzyme Activity (relative to DMSO controls)", "setting": "panel of 391 kinases [15]", "result": 96.53, "unit": "%"}, {"measurement": "remaining activity at 1 µM", "setting": "panel of 391 kinases [15]; [18]", "result": 97.1, "unit": "%"}, {"measurement": "% Enzyme Activity (relative to DMSO controls)", "setting": "panel of 391 kinases [16]", "result": 97.72, "unit": "%"}, {"measurement": "remaining activity at 1 µM", "setting": "panel of 391 kinases [16]; [18]", "result": 99.2, "unit": "%"}, {"measurement": "% Enzyme Activity (relative to DMSO controls)", "setting": "panel of 391 kinases [17]", "result": 95.37, "unit": "%"}, {"measurement": "remaining activity at 1 µM", "setting": "panel of 391 kinases [17]; [18]", "result": 97.8, "unit": "%"}]}]}
